Source: patent US12091404B2 (Gilead Sciences, Inc., priority 2021, dated 2024)

How the values were obtained:
GLP-1R [1] = target: T1, GLP-1R (Homo sapiens, UniProt P43220); assay: GLP-1R Activation - cAMP Assay 1; format: cell-based; settings: cAMP increase in CHO cells stably expressing GLP-1R; 10-point dose response, 30 minutes incubation at 37° C.
Experimental: GLP-1R Activation—cAMP Assay 1
GLP-1R activation by a compound of the present disclosure was quantified by measuring cAMP increase in CHO cells stably expressing GLP-1R (MultiSpan product #C1267-1a). The cells were harvested and plated in growth medium (DMEM/F-12 (Corning product #10-090-CV) supplemented with 10% FBS (HyClone product #SH30071-03), penicillin/streptomycin (Corning product #30-002CI) and 10 µg/ml puromycin (Gibco product #A11138-03)) at 1,000 cells/well in a 384-well plate (Greiner product #781080). The cells were then incubated overnight at 37° C., 5% CO2. The next day, the medium was removed and the cells were washed with DPBS (Corning product #21-031-CM) before adding the assay medium (HBSS, Corning product #21-023-CV) with 20 mM Hepes (Gibco product #15630-080) and 0. 1% BSA (Rockland Immunochemicals product #BSA-1000)). Following the medium change, the cells were incubated for 1 hour at 37° C., 5% CO2. The tested GLP-1 compound was added to the cells in a 10-point dose response followed by a 30 minutes incubation at 37° C., 5% CO2. cAMP concentration increase was then detected using Cisbio's cAMP Gs Dynamic Kit (product #62AM4PEC) according to the manufacturer's protocol. The response was plotted against the log of the agonist concentration and fitted to a sigmoidal equation to determine the EC50.

GLP-1R [2] = target: T1, GLP-1R; assay: GLP-1R Activation - cAMP Assay 2; format: cell-based
Experimental: GLP-1R Activation—cAMP Assay 2 GLP-1R activation by small molecule agonists is quantified by measuring cAMP increase in CHO cells stably expressing GLP-1R (MultiSpan product #C1267-1a). 50 nL of agonists are pre-spotted in a 10-point dose response onto 384-well plate (Corning product #CL3826) using the Labcyte Echo System. […] The cells are then incubated for 30 minutes at 37° C., 5% CO2. cAMP concentration increase is then detected using Cisbio's cAMP Gs Dynamic Kit (product #62AM4PEC) according to the manufacturer's protocol. The response is plotted against the log of the agonist concentration and fitted to a sigmoidal equation to determine the EC50.

[3] = cAMP increase in CHO cells stably expressing GLP-1R, pre-spotted agonists, assay buffer or 100% Human Plasma (not stated which), 30 minutes at 37° C., read-out: GLP-1R Activation- Assay 2 EC50 (nm)

T1 sequence (P43220 24-463): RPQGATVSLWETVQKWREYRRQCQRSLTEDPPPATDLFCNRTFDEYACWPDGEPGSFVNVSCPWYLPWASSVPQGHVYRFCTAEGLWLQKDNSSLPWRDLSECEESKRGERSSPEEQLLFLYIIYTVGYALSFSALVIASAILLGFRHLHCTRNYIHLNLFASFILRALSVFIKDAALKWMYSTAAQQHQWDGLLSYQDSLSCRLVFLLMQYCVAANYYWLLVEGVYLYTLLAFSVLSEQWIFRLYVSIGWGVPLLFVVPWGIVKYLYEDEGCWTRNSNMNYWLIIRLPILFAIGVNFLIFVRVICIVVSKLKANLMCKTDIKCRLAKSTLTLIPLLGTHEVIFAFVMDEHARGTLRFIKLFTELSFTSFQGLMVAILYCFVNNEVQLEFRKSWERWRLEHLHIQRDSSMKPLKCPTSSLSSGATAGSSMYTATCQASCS

Row | Compound | EC50 (GLP-1R [1]) [nM] | EC50 (GLP-1R [2]; [3]) [nM] | further results
1 | COCCn1c(CN2CCC(c3cccc(OCc4sc(C#N)cc4F)n3)CC2)nc2ccc(C(=O)O)cc21 [Example 1, 2-((4-(6-((5-cyano-3-fluorothiophen-2-yl)methoxy)pyridin-2-yl)piperidin-1-yl)methyl)-1-(2-methoxyethyl)-1H-benzo[d]imidazole-6-carboxylic acid] | 166 | – | –
2 | Cn1ccc(COc2cccc(C3CCN(Cc4nc5ccc(C(=O)O)cc5n4C[C@@H]4CCO4)CC3)n2)n1 [Example 5, (S)-2-((4-(6-((1-methyl-1H-pyrazol-3-yl)methoxy)pyridin-2-yl)piperidin-1-yl)methyl)-1-(oxetan-2-ylmethyl)-1H-benzo[d]imidazole-6-carboxylic acid] | – | > 100 | –
3 | O=C(O)c1ccc2nc(CN3CCC(c4cccc(OCc5ccn(C(F)F)n5)n4)CC3)n(C[C@@H]3CCO3)c2c1 [Example 8, (S)-2-((4-(6-((1-(difluoromethyl)-1H-pyrazol-3-yl)methoxy)pyridin-2-yl)piperidin-1-yl)methyl)-1-(oxetan-2-ylmethyl)-1H-benzo[d]imidazole-6-carboxylic acid] | – | 21.5 | –
4 | COCCn1c(CN2CCC(c3cccc(OCc4ccc(C#N)s4)n3)CC2)nc2ccc(C(=O)O)cc21 [Example 2, 2-((4-(6-((5-cyanothiophen-2-yl)methoxy)pyridin-2-yl)piperidin-1-yl)methyl)-1-(2-methoxyethyl)-1H-benzo[d]imidazole-6-carboxylic acid] | 47.3 | – | –
5 | COCCn1c(CN2CCC(c3cccc(OCc4cnn(C)n4)n3)CC2)nc2ccc(C(=O)O)cc21 [Example 20, 1-(2-methoxyethyl)-2-((4-(6-((2-methyl-2H-1,2,3-triazol-4-yl)methoxy)pyridin-2-yl)piperidin-1-yl)methyl)-1H-benzo[d]imidazole-6-carboxylic acid] | 4350 | – | –
6 | O=C(O)c1ccc2nc(Cc3cc(F)c(-c4cccc(OCc5cc(C(F)(F)F)cs5)n4)cc3F)n(C[C@@H]3CCO3)c2c1 [Example 10, 2-[[2,5-difluoro-4-[6-[[4-(trifluoromethyl)-2-thienyl]methoxy]-2-pyridyl]phenyl]methyl]-3-[[(2S)-oxetan-2-yl]methyl]benzimidazole-5-carboxylic acid] | – | 0.4 | –
7 | NC(=O)c1ccc(COc2cccc(C3CCN(Cc4nc5ccc(C(=O)O)cc5n4C[C@@H]4CCO4)CC3)n2)s1 [Example 7, (S)-2-((4-(6-((5-carbamoylthiophen-2-yl)methoxy)pyridin-2-yl)piperidin-1-yl)methyl)-1-(oxetan-2-ylmethyl)-1H-benzo[d]imidazole-6-carboxylic acid] | – | 36.5 | –
8 | O=C(O)c1ccc2nc(CN3CCC(c4cccc(OCc5cc(C(F)(F)F)cs5)n4)CC3)n(C[C@@H]3CCO3)c2c1 [Example 16, (S)-1-(oxetan-2-ylmethyl)-2-((4-(6-((4-(trifluoromethyl)thiophen-2-yl)methoxy)pyridin-2-yl)piperidin-1-yl)methyl)-1H-benzo[d]imidazole-6-carboxylic acid] | – | 4.1 | –
9 | O=C(O)c1ccc2nc(CN3CCC(c4cccc(OCc5ncc(C(F)(F)F)s5)n4)CC3)n(C[C@@H]3CCO3)c2c1 [Example 14, (S)-1-(oxetan-2-ylmethyl)-2-((4-(6-((5-(trifluoromethyl)thiazol-2-yl)methoxy)pyridin-2-yl)piperidin-1-yl)methyl)-1H-benzo[d]imidazole-6-carboxylic acid] | – | 1.8 | –
10 | COCCn1c(CN2CCC(c3cccc(OCc4nnc(Cl)s4)n3)CC2)nc2ccc(C(=O)O)cc21 [Example 4] | 294 | – | –
11 | N#Cc1cnc(COc2cccc(C3CCN(Cc4nc5ccc(C(=O)O)cc5n4C[C@@H]4CCO4)CC3)n2)s1 [Example 17, (S)-2-((4-(6-((5-cyanothiazol-2-yl)methoxy)pyridin-2-yl)piperidin-1-yl)methyl)-1-(oxetan-2-ylmethyl)-1H-benzo[d]imidazole-6-carboxylic acid] | – | 24.1 | –
12 | O=C(O)c1ccc2nc(CN3CCC(c4cccc(OCc5nc(C(F)(F)F)cs5)n4)CC3)n(C[C@@H]3CCO3)c2c1 [Example 15, (S)-1-(oxetan-2-ylmethyl)-2-((4-(6-((4-(trifluoromethyl)thiazol-2-yl)methoxy)pyridin-2-yl)piperidin-1-yl)methyl)-1H-benzo[d]imidazole-6-carboxylic acid] | – | 5.2 | –
13 | COCCn1c(CN2CCC(c3cccc(OCc4csc5cc(Cl)ccc45)n3)CC2)nc2ccc(C(=O)O)cc21 [Example 11, 2-((4-(6-((6-chlorobenzo[b]thiophen-3-yl)methoxy)pyridin-2-yl)piperidin-1-yl)methyl)-1-(2-methoxyethyl)-1H-benzo[d]imidazole-6-carboxylic acid] | 156 | – | –
14 | Cn1cc(C#Cc2ccc(COc3cccc(C4CCN(Cc5nc6ccc(C(=O)O)cc6n5C[C@@H]5CCO5)CC4)n3)s2)cn1 [Example 9, 2-[[4-[6-[[5-[2-(1-methylpyrazol-4-yl)ethynyl]-2-thienyl]methoxy]-2-pyridyl]-1-piperidyl]methyl]-3-[[(2S)-oxetan-2-yl]methyl]benzimidazole-5-carboxylic acid] | – | 3.3 | –
15 | COCCn1c(CN2CCC(c3cccc(OCc4cnc(Cl)s4)n3)CC2)nc2ccc(C(=O)O)cc21 [Example 3, 2-[[4-[6-[(2-chlorothiazol-5-yl)methoxy]-2-pyridyl]-1-piperidyl]methyl]-3-(2-methoxyethyl)benzimidazole-5-carboxylic acid] | 307 | – | –
16 | COCCn1c(CN2CCC(c3cccc(OCc4nccs4)n3)CC2)nc2ccc(C(=O)O)cc21 [Example 18, 1-(2-methoxyethyl)-2-((4-(6-(thiazol-2-ylmethoxy)pyridin-2-yl)piperidin-1-yl)methyl)-1H-benzo[d]imidazole-6-carboxylic acid] | 869 | – | –
17 | N#Cc1ccc(COc2cccc(C3CCN(Cc4nc5ccc(C(=O)O)cc5n4C[C@@H]4CCO4)CC3)n2)s1 [Example 6, (S)-2-((4-(6-((5-cyanothiophen-2-yl)methoxy)pyridin-2-yl)piperidin-1-yl)methyl)-1-(oxetan-2-ylmethyl)-1H-benzo[d]imidazole-6-carboxylic acid] | – | – | EC50 (GLP-1R [2]): 0.9 nM
18 | COCCn1c(CN2CCC(c3cccc(OCc4csc5ccccc45)n3)CC2)nc2ccc(C(=O)O)cc21 [Example 13, 2-((4-(6-(benzo[b]thiophen-3-ylmethoxy)pyridin-2-yl)piperidin-1-yl)methyl)-1-(2-methoxyethyl)-1H-benzo] | 197 | – | –
19 | COCCn1c(CN2CCC(c3cccc(OCc4ccsc4)n3)CC2)nc2ccc(C(=O)O)cc21 [Example 12, 1-(2-methoxyethyl)-2-((4-(6-(thiophen-3-ylmethoxy)pyridin-2-yl)piperidin-1-yl)methyl)-1H-benzo[d]imidazole-6-carboxylic acid] | 831 | – | –
20 | COCCn1c(CN2CCC(c3cccc(OCc4cscn4)n3)CC2)nc2ccc(C(=O)O)cc21 [Example 19, 1-(2-methoxyethyl)-2-((4-(6-(thiazol-4-ylmethoxy)pyridin-2-yl)piperidin-1-yl)methyl)-1H-benzo[d]imidazole-6-carboxylic acid] | 5900 | – | –
